This passage reports TGI and GI50 results from PubChem BioAssay (NCI).

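Following 48 hours of exposure in 96-well plates, responses at five concentrations were used to interpolate endpoints linearly. At the GI50, growth is halved. TGI is the concentration that stops growth completely.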 Bounds are passed on as bounds.

The test system of the first assay is SNB-19 CNS. In words: NCI-60 cell line screen, 48 h.
Consider `N#C/C(=C1\SC(N=Nc2ccc(Cl)cc2)C(=O)N1c1ccccc1)c1nc2ccccc2[nH]1` (stereo unspecified), for which the TGI was 89.6 µM.

Regarding `O=C(NN1C(=O)CSC1c1cccc(F)c1)c1ccncc1` (stereo unspecified), the TGI was above 100 µM.

For `COc1ccc(N2C(=O)C3c4[nH]c5ccccc5c4C4CCCCCCCCCC4C3C2=O)cc1` (stereo unspecified), the TGI is above 10 µM.

With `CC(C)C(N)C(=O)NC(CCC(=O)NCCCCC(N)C(=O)NCCCNc1ccc([N+](=O)[O-])c2[nH]c3ccccc3c(=O)c12)C(N)=O` (stereo unspecified), the TGI is above 100 µM.

For `Nc1ccc(-c2nn3c(COc4ccc(Cl)cc4)nnc3s2)cc1`, the TGI was above 100 µM.

The compound `c1ccc2[nH]c(CNc3ccc(C4C[Se]N=N4)cc3)nc2c1` (stereo unspecified) came in with a TGI above 100 µM.

Compound `O=C1C(C(O)(C(F)(F)F)C(F)(F)F)CCC1C(O)(C(F)(F)F)C(F)(F)F` (stereo unspecified) gave a TGI above 100 µM.

`COc1cc(/C=C2\CCC(C)/C(=C\c3cc(OC)c(OC)c(OC)c3)C2=O)cc(OC)c1OC` (stereo unspecified) displayed a TGI of 18.4 µM.

Regarding `C[C@H]1OC(=O)[C@@H]2N=NN(Cc3ccccc3)[C@H]12`, the TGI is above 100 µM.

Regarding `CN1N=C(c2ccncc2)OC1c1ccccc1F` (stereo unspecified), the TGI was above 100 µM.

Compound `Cc1ccc2oc(=O)c(-c3ccccc3)nc2c1` had a TGI above 100 µM.

In turn, `O=C(O)/C=C\C(=O)Nc1ccc(S(=O)(=O)c2ccc(NC(=O)/C=C\C(=O)O)cc2)cc1` registered a TGI above 100 µM.

In the case of `COc1ccc(-n2nc(C)c3c(Nc4ccc(NC(=O)Nc5ccc(Cl)c(C(F)(F)F)c5)cc4)ncnc32)cc1`, the GI50 was 2490 nM and the TGI came out at 7.88 µM.

`CC1(C)CC(C#Cc2ccccc2)CC(C)(C)N1O` came in with a TGI above 100 µM.

As for `COc1ccc(/C=N/n2c(C)nc3c(sc(=S)n3-c3ccccc3)c2=O)cc1`, the TGI was above 100 µM.

`CSc1nc2c(ncn2C2OC(CO)C(O)C(O)C2O)c(=O)[nH]1` (stereo unspecified) displayed a TGI above 100 µM.

In turn, `Nc1ccccc1C(=O)C(Br)C(Br)c1ccc2c(c1)OCO2` (stereo unspecified) showed a TGI of 89 µM.

In turn, `CCCCCCCCCCCC1CC(=O)NCCCN(C)CCCCN(C)CCCN1C` (stereo unspecified) displayed a TGI of 3.1 µM.

In turn, `COc1cc(C2c3cc4c(cc3[C@@H](Nc3ccc5c(c3)OCO5)C3COC(=O)[C@H]23)OCO4)cc(OC)c1O` (stereo partly specified) showed a TGI of 30.1 µM.

For the compound `CCN(CCCl)c1cc(CN(C)C)cc(NC(=O)c2ccc(C(=O)Nc3cccc(CN(C)C)c3)cc2)c1`, the TGI was determined as 1.34 µM.

In turn, `CC(C)N1CN(c2ccccc2)C2(CCN(CCCC(=O)c3ccc(F)cc3)CC2)C1=O` had a TGI above 56 µM.

The next assay deals with 786-0 renal. In words: NCI-60 cell line screen, 48 h.
`N#C/C(=C1\SC(N=Nc2ccc(Cl)cc2)C(=O)N1c1ccccc1)c1nc2ccccc2[nH]1` (stereo unspecified) returned a TGI of 26.8 µM.

Compound `O=C(CC(C(=O)c1ccco1)c1ccco1)c1ccco1` (stereo unspecified) came in with a TGI above 100 µM.

On to `CC(C)C(N)C(=O)NC(CCC(=O)NCCCCC(N)C(=O)NCCCNc1ccc([N+](=O)[O-])c2[nH]c3ccccc3c(=O)c12)C(N)=O` (stereo unspecified), for which the TGI was above 100 µM.

Regarding `Nc1ccc(-c2nn3c(COc4ccc(Cl)cc4)nnc3s2)cc1`, the TGI was above 100 µM.

On to `c1ccc2[nH]c(CNc3ccc(C4C[Se]N=N4)cc3)nc2c1` (stereo unspecified), for which the TGI was above 100 µM.

Take `O=C1C(C(O)(C(F)(F)F)C(F)(F)F)CCC1C(O)(C(F)(F)F)C(F)(F)F` (stereo unspecified): the TGI is above 38.8 µM.

In turn, `COc1cc(/C=C2\CCC(C)/C(=C\c3cc(OC)c(OC)c(OC)c3)C2=O)cc(OC)c1OC` (stereo unspecified) gave a TGI above 100 µM.

Compound `C[C@H]1OC(=O)[C@@H]2N=NN(Cc3ccccc3)[C@H]12` registered a TGI above 100 µM.

As to `CN1N=C(c2ccncc2)OC1c1ccccc1F` (stereo unspecified), the TGI was above 100 µM.

With `Cc1ccc2oc(=O)c(-c3ccccc3)nc2c1`, the TGI is above 100 µM.

For the compound `O=C(O)/C=C\C(=O)Nc1ccc(S(=O)(=O)c2ccc(NC(=O)/C=C\C(=O)O)cc2)cc1`, the TGI was above 100 µM.

The compound `CC1(C)CC(C#Cc2ccccc2)CC(C)(C)N1O` yielded a TGI of 76.7 µM.

For the compound `Nc1ccccc1C(=O)C(Br)C(Br)c1ccc2c(c1)OCO2` (stereo unspecified), the TGI is above 100 µM.

Consider `CCCCCCCCCCCC1CC(=O)NCCCN(C)CCCCN(C)CCCN1C` (stereo unspecified), for which the TGI is 2.89 µM.

The compound `CCN(CCCl)c1cc(CN(C)C)cc(NC(=O)c2ccc(C(=O)Nc3cccc(CN(C)C)c3)cc2)c1` registered a TGI of 2.35 µM.

Consider `CC(C)N1CN(c2ccccc2)C2(CCN(CCCC(=O)c3ccc(F)cc3)CC2)C1=O`, for which the TGI is above 60.7 µM.

A further assay concerns SF-268 CNS. Description: NCI-60 cell line screen, 48 h.
Consider `N#C/C(=C1\SC(N=Nc2ccc(Cl)cc2)C(=O)N1c1ccccc1)c1nc2ccccc2[nH]1` (stereo unspecified), for which the TGI was above 100 µM.

Compound `O=C(NN1C(=O)CSC1c1cccc(F)c1)c1ccncc1` (stereo unspecified) yielded a TGI above 100 µM.

On to `COc1ccc(N2C(=O)C3c4[nH]c5ccccc5c4C4CCCCCCCCCC4C3C2=O)cc1` (stereo unspecified), for which the TGI is above 10 µM.

Compound `O=C(CC(C(=O)c1ccco1)c1ccco1)c1ccco1` (stereo unspecified) displayed a TGI above 100 µM.

In turn, `CC(C)C(N)C(=O)NC(CCC(=O)NCCCCC(N)C(=O)NCCCNc1ccc([N+](=O)[O-])c2[nH]c3ccccc3c(=O)c12)C(N)=O` (stereo unspecified) returned a TGI above 100 µM.

For the compound `Nc1ccc(-c2nn3c(COc4ccc(Cl)cc4)nnc3s2)cc1`, the GI50 was 46.8 µM and the TGI is above 100 µM.

With `c1ccc2[nH]c(CNc3ccc(C4C[Se]N=N4)cc3)nc2c1` (stereo unspecified), the TGI was above 100 µM.

On to `O=C1C(C(O)(C(F)(F)F)C(F)(F)F)CCC1C(O)(C(F)(F)F)C(F)(F)F` (stereo unspecified), for which the TGI was above 100 µM.

Regarding `COc1cc(/C=C2\CCC(C)/C(=C\c3cc(OC)c(OC)c(OC)c3)C2=O)cc(OC)c1OC` (stereo unspecified), the TGI came to 34.4 µM.

The compound `C[C@H]1OC(=O)[C@@H]2N=NN(Cc3ccccc3)[C@H]12` displayed a TGI above 100 µM.

As to `CN1N=C(c2ccncc2)OC1c1ccccc1F` (stereo unspecified), the TGI is above 100 µM.

Turning to `Cc1ccc2oc(=O)c(-c3ccccc3)nc2c1`, the TGI was above 100 µM.

`O=C(O)/C=C\C(=O)Nc1ccc(S(=O)(=O)c2ccc(NC(=O)/C=C\C(=O)O)cc2)cc1`: the TGI is above 100 µM.

`COc1ccc(-n2nc(C)c3c(Nc4ccc(NC(=O)Nc5ccc(Cl)c(C(F)(F)F)c5)cc4)ncnc32)cc1`: the GI50 is 2.61 µM and the TGI was 7.99 µM.

`CC1(C)CC(C#Cc2ccccc2)CC(C)(C)N1O` registered a TGI of 83.1 µM.

`COc1ccc(/C=N/n2c(C)nc3c(sc(=S)n3-c3ccccc3)c2=O)cc1`: the TGI is above 100 µM.

The compound `CSc1nc2c(ncn2C2OC(CO)C(O)C(O)C2O)c(=O)[nH]1` (stereo unspecified) gave a TGI above 100 µM.

For `Nc1ccccc1C(=O)C(Br)C(Br)c1ccc2c(c1)OCO2` (stereo unspecified), the TGI is 91.5 µM.

Compound `CCCCCCCCCCCC1CC(=O)NCCCN(C)CCCCN(C)CCCN1C` (stereo unspecified) returned a TGI of 3.3 µM.

Compound `COc1cc(C2c3cc4c(cc3[C@@H](Nc3ccc5c(c3)OCO5)C3COC(=O)[C@H]23)OCO4)cc(OC)c1O` (stereo partly specified) yielded a TGI of 30 µM.

As for `CCN(CCCl)c1cc(CN(C)C)cc(NC(=O)c2ccc(C(=O)Nc3cccc(CN(C)C)c3)cc2)c1`, the TGI came to 63.1 µM.

The compound `CC(C)N1CN(c2ccccc2)C2(CCN(CCCC(=O)c3ccc(F)cc3)CC2)C1=O` returned a TGI above 63.4 µM.

A further assay concerns SF-539 CNS. Description: NCI-60 cell line screen, 48 h.
In the case of `N#C/C(=C1\SC(N=Nc2ccc(Cl)cc2)C(=O)N1c1ccccc1)c1nc2ccccc2[nH]1` (stereo unspecified), the TGI was above 100 µM.

Take `O=C(NN1C(=O)CSC1c1cccc(F)c1)c1ccncc1` (stereo unspecified): the TGI is above 100 µM.

For the compound `COc1ccc(N2C(=O)C3c4[nH]c5ccccc5c4C4CCCCCCCCCC4C3C2=O)cc1` (stereo unspecified), the TGI was above 10 µM.

`O=C(CC(C(=O)c1ccco1)c1ccco1)c1ccco1` (stereo unspecified) had a TGI above 100 µM.

For `Nc1ccc(-c2nn3c(COc4ccc(Cl)cc4)nnc3s2)cc1`, the GI50 is 34500 nM and the TGI is above 100 µM.

Compound `c1ccc2[nH]c(CNc3ccc(C4C[Se]N=N4)cc3)nc2c1` (stereo unspecified) gave a TGI above 100 µM.

Compound `O=C1C(C(O)(C(F)(F)F)C(F)(F)F)CCC1C(O)(C(F)(F)F)C(F)(F)F` (stereo unspecified) showed a TGI above 43.5 µM.

For `C[C@H]1OC(=O)[C@@H]2N=NN(Cc3ccccc3)[C@H]12`, the TGI is above 100 µM.

`CN1N=C(c2ccncc2)OC1c1ccccc1F` (stereo unspecified) displayed a TGI above 100 µM.

As for `Cc1ccc2oc(=O)c(-c3ccccc3)nc2c1`, the TGI was 50.5 µM.

Compound `O=C(O)/C=C\C(=O)Nc1ccc(S(=O)(=O)c2ccc(NC(=O)/C=C\C(=O)O)cc2)cc1` returned a TGI above 100 µM.

Take `COc1ccc(-n2nc(C)c3c(Nc4ccc(NC(=O)Nc5ccc(Cl)c(C(F)(F)F)c5)cc4)ncnc32)cc1`: the GI50 is 1240 nM and the TGI was 3.2 µM.

Turning to `CC1(C)CC(C#Cc2ccccc2)CC(C)(C)N1O`, the TGI was found to be 51.8 µM.

In turn, `COc1ccc(/C=N/n2c(C)nc3c(sc(=S)n3-c3ccccc3)c2=O)cc1` showed a TGI above 100 µM.

`CSc1nc2c(ncn2C2OC(CO)C(O)C(O)C2O)c(=O)[nH]1` (stereo unspecified): the TGI is above 100 µM.

Take `Nc1ccccc1C(=O)C(Br)C(Br)c1ccc2c(c1)OCO2` (stereo unspecified): the TGI is 33.8 µM.

`CCCCCCCCCCCC1CC(=O)NCCCN(C)CCCCN(C)CCCN1C` (stereo unspecified) showed a TGI of 3.17 µM.

On to `CC(=O)Oc1c(C)c(C)c2c(c1C)CCC(C)(CC(=O)OCCCCCCCCCCC[P+](c1ccccc1)(c1ccccc1)c1ccccc1)O2` (stereo unspecified), for which the GI50 is 411 nM and the TGI is 1.47 µM.

Regarding `COc1cc(C2c3cc4c(cc3[C@@H](Nc3ccc5c(c3)OCO5)C3COC(=O)[C@H]23)OCO4)cc(OC)c1O` (stereo partly specified), the TGI was 2.41 µM.

`CCN(CCCl)c1cc(CN(C)C)cc(NC(=O)c2ccc(C(=O)Nc3cccc(CN(C)C)c3)cc2)c1`: the TGI was 2.99 µM.

For the compound `CC(C)N1CN(c2ccccc2)C2(CCN(CCCC(=O)c3ccc(F)cc3)CC2)C1=O`, the TGI was determined as 22.1 µM.

Another assay relates to RXF 393 renal. In words: NCI-60 cell line screen, 48 h.
`N#C/C(=C1\SC(N=Nc2ccc(Cl)cc2)C(=O)N1c1ccccc1)c1nc2ccccc2[nH]1` (stereo unspecified): the TGI was determined as 67.9 µM.

Compound `O=C(NN1C(=O)CSC1c1cccc(F)c1)c1ccncc1` (stereo unspecified) displayed a TGI above 100 µM.

The compound `COc1ccc(N2C(=O)C3c4[nH]c5ccccc5c4C4CCCCCCCCCC4C3C2=O)cc1` (stereo unspecified) had a TGI above 10 µM.

Consider `O=C(CC(C(=O)c1ccco1)c1ccco1)c1ccco1` (stereo unspecified), for which the TGI was above 100 µM.

`CC(C)C(N)C(=O)NC(CCC(=O)NCCCCC(N)C(=O)NCCCNc1ccc([N+](=O)[O-])c2[nH]c3ccccc3c(=O)c12)C(N)=O` (stereo unspecified) had a TGI of 46.5 µM.
